Laboratory results from the supplement of paper PMC11061612.

Assays:
Assay in all cases: combination Emax (second highest fraction inhibited in the dose matrix, 72 h); higher = more inhibition; extreme values may be limits of the assay
[1] = tested on: EMC-BAC-2 (Non-Small Cell Lung Carcinoma)
Procedure, shortened: (§1)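 Cell lines grown in DMEM/F12 or RPMI with 10% FBS were plated in 1536-well plates and held 24 hours at 37°C, 5% CO2 before 72 hours of exposure to two-drug dose matrices, with DMSO typically at 0.2%. CellTiter-Glo 2.0 luminescence gave viability, which was converted to inhibition. Vehicle wells were set to 0 and blank wells to 1. Combination Emax is the second-highest inhibition in the matrix, and Bliss excess is the observed combination effect minus the expected EA + EB − EA·EB, where EA and EB are the single-agent effects.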

[2] = tested on: OVISE (Ovarian Carcinoma)
Procedure, shortened: as §1

[3] = tested on: NCI-H2347 (Lung Adenocarcinoma)
Procedure, shortened: as §1

[4] = tested on: DG-75 (Burkitt's Lymphoma)
Procedure, shortened: as §1

[5] = tested on: KP-2 (Pancreatic Carcinoma)
Procedure, shortened: as §1

NH-12 (Neuroblastoma) = tested on: NH-12 (Neuroblastoma)
Procedure, shortened: as §1

GI-1 (Glioblastoma) = tested on: GI-1 (Glioblastoma)
Procedure, shortened: as §1

[6] = tested on: OCUM-1 (Gastric Carcinoma)
Procedure, shortened: as §1

[7] = tested on: LOU-NH91 (Squamous Cell Lung Carcinoma)
Procedure, shortened: as §1

[8] = tested on: VMRC-LCD (Lung Adenocarcinoma)
Procedure, shortened: as §1

[9] = tested on: ASH-3 (Thyroid Gland Carcinoma)
Procedure, shortened: as §1

[10] = tested on: NCI-H513 (Other Solid Carcinomas)
Procedure, shortened: as §1

[11] = tested on: BV-173 (Chronic Myelogenous Leukemia)
Procedure, shortened: as §1

[12] = tested on: PFSK-1 (Other Solid Carcinomas)
Procedure, shortened: as §1

[13] = tested on: KYSE-150 (Esophageal Squamous Cell Carcinoma)
Procedure, shortened: as §1

[14] = tested on: KYSE-50 (Esophageal Squamous Cell Carcinoma)
Procedure, shortened: as §1

GOTO (Neuroblastoma) = tested on: GOTO (Neuroblastoma)
Procedure, shortened: as §1

[15] = tested on: PF-382 (T-Lymphoblastic Leukemia)
Procedure, shortened: as §1

[16] = tested on: KINGS-1 (Low Grade Glioma)
Procedure, shortened: as §1

[17] = tested on: LC4-1 (B-Lymphoblastic Leukemia)
Procedure, shortened: as §1

Row | SMILES | combination Emax [1] | combination Emax [2] | combination Emax [3] | combination Emax [4] | combination Emax [5] | combination Emax (NH-12 (Neuroblastoma)) | combination Emax (GI-1 (Glioblastoma)) | combination Emax [6] | combination Emax [7] | combination Emax [8] | combination Emax [9] | combination Emax [10] | combination Emax [11] | combination Emax [12] | combination Emax [13] | combination Emax [14] | combination Emax (GOTO (Neuroblastoma)) | combination Emax [15] | combination Emax [16] | combination Emax [17]
1 | COc1nnc2ccc(N3CCC(c4ccc(OCCN5CCN(C)C(=O)[C@H]5C)cc4)CC3)nn12 [AZD5153] + C=CCn1c(=O)c2cnc(Nc3ccc(N4CCN(C)CC4)cc3)nc2n1-c1cccc(C(C)(C)O)n1 [AZD1775] (first compound max 1 µM, partner max 1 µM) | 0.735 | 0.767 | 0.413 | 0.905 | 0.437 | 0.91 | 0.973 | 0.511 | 0.948 | 0.943 | 0.742 | 0.437 | 0.931 | 0.744 | 0.666 | 0.798 | 0.919 | 0.999 | 0.251 | 0.941
2 | COc1nnc2ccc(N3CCC(c4ccc(OCCN5CCN(C)C(=O)[C@H]5C)cc4)CC3)nn12 [AZD5153] + CC1(C)CCC(CN2CCN(c3ccc(C(=O)NS(=O)(=O)c4ccc(NCC5CCOCC5)c([N+](=O)[O-])c4)c(Oc4cnc5[nH]ccc5c4)c3)CC2)=C(c2ccc(Cl)cc2)C1 [Venetoclax] (first compound max 1 µM, 7x7, partner max 1 µM) | 0.661 | 0.549 | 0.331 | 0.887 | 0.354 | 0.737 | 0.763 | 0.567 | 0.641 | 0.489 | 0.718 | 0.358 | 0.921 | 0.595 | 0.627 | 0.501 | 0.813 | 0.871 | 0.159 | 1
3 | COc1nnc2ccc(N3CCC(c4ccc(OCCN5CCN(C)C(=O)[C@H]5C)cc4)CC3)nn12 [AZD5153] + CCN(CCO)CCCOc1ccc2c(Nc3cc(CC(=O)Nc4cccc(F)c4)[nH]n3)ncnc2c1 [AZD2811] (first compound max 1 µM, 7x7, partner max 1 µM) | 0.738 | 0.589 | 0.385 | 0.892 | 0.401 | 0.739 | 0.873 | 0.581 | 0.743 | 0.816 | 0.78 | 0.375 | 0.936 | 0.574 | 0.688 | 0.651 | 0.858 | 0.98 | 0.193 | 0.963
4 | COc1nnc2ccc(N3CCC(c4ccc(OCCN5CCN(C)C(=O)[C@H]5C)cc4)CC3)nn12 [AZD5153] + C[C@@H]1COCCN1C2=NC(=NC(=C2)C3(CC3)[S@](=N)(=O)C)C4=C5C=CNC5=NC=C4 [AZD6738] (first compound max 1 µM, 7x7, partner max 10 µM) | 0.816 | 0.754 | 0.525 | 0.909 | 0.432 | 0.938 | 0.97 | 0.641 | 0.871 | 0.921 | 0.852 | 0.523 | 0.95 | 0.648 | 0.746 | 0.804 | 0.979 | 1 | 0.281 | 0.975
5 | COc1nnc2ccc(N3CCC(c4ccc(OCCN5CCN(C)C(=O)[C@H]5C)cc4)CC3)nn12 [AZD5153] + Cc1c2c(nn1C)CSCc1cc(n(C)n1)CSc1cc(c3ccccc3c1)OCCCc1c(C(=O)O)n(C)c3c-2c(Cl)ccc13 [AZD5991] (first compound max 1 µM, 7x7, partner max 1 µM) | 0.886 | 0.633 | 0.39 | 0.876 | 0.427 | 0.672 | 0.961 | 0.581 | 0.705 | 0.925 | 0.88 | 0.423 | 0.936 | 0.982 | 0.582 | 0.713 | 0.919 | 0.986 | 0.186 | 1
6 | COc1nnc2ccc(N3CCC(c4ccc(OCCN5CCN(C)C(=O)[C@H]5C)cc4)CC3)nn12 [AZD5153] + Cn1cnc2c(F)c(Nc3ccc(Br)cc3Cl)c(C(=O)NOCCO)cc21 [Selumetinib] (first compound max 1 µM, 7x7, partner max 10 µM) | 0.738 | 0.626 | 0.6 | 0.862 | 0.54 | 0.729 | 0.705 | 0.909 | 0.63 | 0.575 | 0.713 | 0.499 | 0.936 | 0.664 | 0.661 | 0.697 | 0.822 | 0.903 | 0.323 | 0.975
7 | Cc1c2c(nn1C)CSCc1cc(n(C)n1)CSc1cc(c3ccccc3c1)OCCCc1c(C(=O)O)n(C)c3c-2c(Cl)ccc13 [AZD5991] + CC1(C)CCC(CN2CCN(c3ccc(C(=O)NS(=O)(=O)c4ccc(NCC5CCOCC5)c([N+](=O)[O-])c4)c(Oc4cnc5[nH]ccc5c4)c3)CC2)=C(c2ccc(Cl)cc2)C1 [Venetoclax] (first compound max 1 µM, 7x7, partner max 1 µM) | 0.694 | 0.442 | 0.138 | 0.144 | 0.239 | 0.892 | 0.954 | 0.0835 | 0.221 | 0.164 | 0.325 | 0.156 | 0.95 | 1 | 0.17 | 0.418 | 0.795 | 0.337 | 0.266 | 1
8 | Cc1c2c(nn1C)CSCc1cc(n(C)n1)CSc1cc(c3ccccc3c1)OCCCc1c(C(=O)O)n(C)c3c-2c(Cl)ccc13 [AZD5991] + CCN(CCO)CCCOc1ccc2c(Nc3cc(CC(=O)Nc4cccc(F)c4)[nH]n3)ncnc2c1 [AZD2811] (first compound max 1 µM, 7x7, partner max 1 µM) | 0.823 | 0.376 | 0.213 | 0.229 | 0.264 | 0.752 | 0.9 | 0.394 | 0.612 | 0.613 | 0.3 | 0.197 | 0.95 | 0.998 | 0.498 | 0.556 | 0.709 | 0.923 | 0.242 | 0.993
9 | Cc1c2c(nn1C)CSCc1cc(n(C)n1)CSc1cc(c3ccccc3c1)OCCCc1c(C(=O)O)n(C)c3c-2c(Cl)ccc13 [AZD5991] + CN(C)CCCOc1ccc(-c2ccc3ncc4c(c3c2)n(C2CCOCC2)c(=O)n4C)cn1 [AZD0156] (first compound max 1 µM, 7x7, partner max 1 µM) | 0.745 | 0.283 | 0.239 | 0.395 | 0.18 | 0.226 | 0.774 | 0.113 | 0.47 | 0.2 | 0.344 | 0.228 | 0.95 | 0.993 | 0.453 | 0.292 | 0.757 | 0.337 | 0.278 | 0.962
10 | Cc1c2c(nn1C)CSCc1cc(n(C)n1)CSc1cc(c3ccccc3c1)OCCCc1c(C(=O)O)n(C)c3c-2c(Cl)ccc13 [AZD5991] + C[C@@H]1COCCN1C2=NC(=NC(=C2)C3(CC3)[S@](=N)(=O)C)C4=C5C=CNC5=NC=C4 [AZD6738] (first compound max 1 µM, 7x7, partner max 10 µM) | 0.862 | 0.615 | 0.322 | 0.817 | 0.259 | 0.901 | 0.995 | 0.71 | 0.426 | 0.559 | 0.566 | 0.344 | 0.965 | 1 | 0.543 | 0.643 | 0.92 | 0.929 | 0.198 | 0.981
11 | Cc1c2c(nn1C)CSCc1cc(n(C)n1)CSc1cc(c3ccccc3c1)OCCCc1c(C(=O)O)n(C)c3c-2c(Cl)ccc13 [AZD5991] + C[C@@H](Nc1cc(F)cc(F)c1)c1cc(C(=O)N(C)C)cc2c(=O)cc(N3CCOCC3)oc12 [AZD8186] (first compound max 1 µM, 7x7, partner max 3 µM) | 0.632 | 0.325 | 0.279 | 0.219 | 0.254 | 0.313 | 0.883 | 0.137 | 0.371 | 0.196 | 0.46 | 0.339 | 0.93 | 0.998 | 0.281 | 0.317 | 0.654 | 0.27 | 0.366 | 0.949
12 | Cc1c2c(nn1C)CSCc1cc(n(C)n1)CSc1cc(c3ccccc3c1)OCCCc1c(C(=O)O)n(C)c3c-2c(Cl)ccc13 [AZD5991] + Cc1cc2ncnn2cc1Nc1ncc2c(n1)n(C1CCOCC1)c(=O)n2C [AZD7648] (first compound max 1 µM, 7x7, partner max 10 µM) | 0.678 | 0.269 | 0.287 | 0.362 | 0.2 | 0.226 | 0.672 | 0.215 | 0.278 | 0.215 | 0.358 | 0.324 | 0.946 | 1 | 0.57 | 0.284 | 0.72 | 0.353 | 0.326 | 0.968
